The values below come from patent US11192877B2, “3-(5-hydroxy-1-oxoisoindolin-2-yl)piperidine-2,6-dione derivatives and uses thereof” (Novartis AG, priority 2018, dated 2021).

Counter-ions that a name gives are not always drawn.

Sequence of IKZF2 (Helios) (Q9UKS7 whole entry): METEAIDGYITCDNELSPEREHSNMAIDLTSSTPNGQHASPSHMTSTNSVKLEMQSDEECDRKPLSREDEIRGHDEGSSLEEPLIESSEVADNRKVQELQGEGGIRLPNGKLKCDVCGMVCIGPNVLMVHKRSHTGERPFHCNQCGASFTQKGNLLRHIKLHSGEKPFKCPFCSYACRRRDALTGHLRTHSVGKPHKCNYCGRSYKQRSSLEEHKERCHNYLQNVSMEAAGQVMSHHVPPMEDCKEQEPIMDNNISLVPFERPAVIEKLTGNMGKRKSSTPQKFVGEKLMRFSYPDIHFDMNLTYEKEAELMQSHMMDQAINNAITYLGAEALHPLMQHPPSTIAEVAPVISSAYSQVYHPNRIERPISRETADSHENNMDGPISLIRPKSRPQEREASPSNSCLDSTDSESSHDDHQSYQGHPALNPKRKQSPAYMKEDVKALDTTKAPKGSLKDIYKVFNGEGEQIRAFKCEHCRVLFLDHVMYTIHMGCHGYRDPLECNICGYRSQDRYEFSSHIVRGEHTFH
Sequence of IKZF2 (Helios) (Q96SW2 whole entry): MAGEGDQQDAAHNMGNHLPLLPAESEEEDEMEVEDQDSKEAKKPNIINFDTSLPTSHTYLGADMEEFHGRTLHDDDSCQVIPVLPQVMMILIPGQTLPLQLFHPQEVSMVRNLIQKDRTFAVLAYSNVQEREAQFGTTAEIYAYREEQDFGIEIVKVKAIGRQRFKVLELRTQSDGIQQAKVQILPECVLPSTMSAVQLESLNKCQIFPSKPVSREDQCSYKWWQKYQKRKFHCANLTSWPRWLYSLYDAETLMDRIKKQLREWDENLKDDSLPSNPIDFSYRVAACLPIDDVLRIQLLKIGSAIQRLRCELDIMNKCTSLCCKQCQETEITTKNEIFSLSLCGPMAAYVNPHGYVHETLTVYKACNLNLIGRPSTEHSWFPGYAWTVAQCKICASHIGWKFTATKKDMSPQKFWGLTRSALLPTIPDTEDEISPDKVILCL
Sequence of IKZF2 (Helios) (Q16531 whole entry partner): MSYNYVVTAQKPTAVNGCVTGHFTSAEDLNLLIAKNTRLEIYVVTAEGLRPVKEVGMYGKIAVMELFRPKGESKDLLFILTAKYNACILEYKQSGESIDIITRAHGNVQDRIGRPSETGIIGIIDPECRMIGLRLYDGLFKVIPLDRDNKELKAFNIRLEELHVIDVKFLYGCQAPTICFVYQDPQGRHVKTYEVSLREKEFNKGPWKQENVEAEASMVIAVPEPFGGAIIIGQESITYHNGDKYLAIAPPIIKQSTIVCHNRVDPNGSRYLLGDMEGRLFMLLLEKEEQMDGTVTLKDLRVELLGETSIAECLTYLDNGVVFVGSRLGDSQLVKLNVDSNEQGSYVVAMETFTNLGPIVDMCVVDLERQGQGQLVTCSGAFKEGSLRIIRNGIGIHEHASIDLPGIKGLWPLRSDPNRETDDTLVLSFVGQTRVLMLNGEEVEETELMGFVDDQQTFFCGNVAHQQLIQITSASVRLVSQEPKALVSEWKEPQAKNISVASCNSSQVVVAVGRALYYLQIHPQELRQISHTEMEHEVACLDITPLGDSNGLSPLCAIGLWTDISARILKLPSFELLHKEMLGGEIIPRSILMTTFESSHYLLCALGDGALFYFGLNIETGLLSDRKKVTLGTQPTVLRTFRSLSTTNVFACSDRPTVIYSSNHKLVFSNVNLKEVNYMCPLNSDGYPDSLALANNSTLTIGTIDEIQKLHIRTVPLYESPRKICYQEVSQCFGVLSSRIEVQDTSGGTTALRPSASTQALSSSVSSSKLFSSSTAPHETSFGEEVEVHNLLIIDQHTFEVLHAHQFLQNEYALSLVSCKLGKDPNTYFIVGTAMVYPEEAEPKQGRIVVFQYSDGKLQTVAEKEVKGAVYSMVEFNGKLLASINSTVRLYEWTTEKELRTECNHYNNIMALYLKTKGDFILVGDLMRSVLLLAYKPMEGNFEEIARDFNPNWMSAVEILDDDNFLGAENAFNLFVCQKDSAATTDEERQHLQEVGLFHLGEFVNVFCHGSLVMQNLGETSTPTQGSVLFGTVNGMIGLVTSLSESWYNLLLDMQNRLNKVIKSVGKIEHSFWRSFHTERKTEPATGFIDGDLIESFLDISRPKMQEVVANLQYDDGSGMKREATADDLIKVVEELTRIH

One experiment addresses IKZF2 (Helios) (Homo sapiens, UniProt Q96SW2+Q9UKS7). Briefly: Prolabel quantification of IKZF2 protein levels in 293GT cells. It counts as cell-based. Conditions: 24 h, Pro-label assay, 293GT cells, 10 μM, read-out: IKZF2 % protein reduction at 10 μM, 24 h.
With `CO[C@H]1CCC[C@@H]1Oc1ccc2c(c1)CN(C1CCC(=O)NC1=O)C2=O` (stereo partly drawn) [I-26, 3-(5-(((1S,2S)-2-methoxycyclopentyl)oxy)-1-oxoisoindolin-2-yl)piperidine-2,6-dione], the IKZF2 % protein reduction at 10 µM was 0%.

Consider `O=C1CCC(N2Cc3cc(O[C@H]4CCCC[C@@H]4NC4CC5(CCOCC5)C4)ccc3C2=O)C(=O)N1` (stereo partly drawn) [I-110, 3-(5-(((1S,2S)-2-((7-oxaspiro[3.5]nonan-2-yl)amino)cyclohexyl)oxy)-1-oxoisoindolin-2-yl)piperidine-2,6-dione], for which the IKZF2 % protein reduction at 10 µM is 89%.

With `O=C1CCN([C@H]2CCC[C@@H]2Oc2ccc3c(c2)CN(C2CCC(=O)NC2=O)C3=O)CC1` (stereo partly drawn) [I-137, 3-(1-oxo-5-(((1S,2S)-2-(4-oxopiperidin-1-yl)cyclopentyl)oxy)isoindolin-2-yl)piperidine-2,6-dione], the IKZF2 % protein reduction at 10 µM was 80%.

In the case of `O=C1CCC(N2Cc3cc(O[C@H]4CCOC[C@@H]4NCc4ccccc4)ccc3C2=O)C(=O)N1` (stereo partly drawn) [I-21, 3-(5-(((3S,4S)-3-(benzylamino)tetrahydro-2H-pyran-4-yl)oxy)-1-oxoisoindolin-2-yl)piperidine-2,6-dione], the IKZF2 % protein reduction at 10 µM was 30%.

With `CC(C)CN[C@H]1CCCCC[C@@H]1Oc1ccc2c(c1)CN(C1CCC(=O)NC1=O)C2=O` (stereo partly drawn) [I-61, 3-(5-(((1S,2S)-2-(isobutylamino)cycloheptyl)oxy)-1-oxoisoindolin-2-yl)piperidine-2,6-dione], the IKZF2 % protein reduction at 10 µM is 84%.

Turning to `COc1ccc(CN[C@H]2CCCC[C@@H]2Oc2ccc3c(c2)CN(C2CCC(=O)NC2=O)C3=O)nc1` (stereo partly drawn) [I-91, 3-(5-(((1S,2S)-2-(((5-methoxypyridin-2-yl)methyl)amino)cyclohexyl)oxy)-1-oxoisoindolin-2-yl)piperidine-2,6-dione], the IKZF2 % protein reduction at 10 µM worked out at 58%.

Turning to `O=C1CCC(N2Cc3cc(O[C@H]4CCC[C@@H]4NCc4ccccc4)ccc3C2=O)C(=O)N1` (stereo partly drawn) [I-20, 3-(5-(((1S,2S)-2-(benzylamino)cyclopentyl)oxy)-1-oxoisoindolin-2-yl)piperidine-2,6-dione], the IKZF2 % protein reduction at 10 µM was found to be 75%.

For `COC1(C)CCN([C@H]2CCCCC[C@@H]2Oc2ccc3c(c2)CN(C2CCC(=O)NC2=O)C3=O)CC1` (stereo partly drawn) [I-60, 3-(5-(((1S,2S)-2-(4-methoxy-4-methylpiperidin-1-yl)cycloheptyl)oxy)-1-oxoisoindolin-2-yl)piperidine-2,6-dione], the IKZF2 % protein reduction at 10 µM amounted to 61%.

`CCN(C)[C@H]1c2ccccc2C[C@@H]1Oc1ccc2c(c1)CN(C1CCC(=O)NC1=O)C2=O` (stereo partly drawn) [I-200, 3-(5-(((1S,2S)-1-(ethyl(methyl)amino)-2,3-dihydro-1H-inden-2-yl)oxy)-1-oxoisoindolin-2-yl)piperidine-2,6-dione]: the IKZF2 % protein reduction at 10 µM turned out to be 71%.

Turning to `O=C1CCC(N2Cc3cc(O[C@H]4CCCCC[C@@H]4N4CC5(COC5)C4)ccc3C2=O)C(=O)N1` (stereo partly drawn) [I-63, 3-(5-(((1S,2S)-2-(2-oxa-6-azaspiro[3.3]heptan-6-yl)cycloheptyl)oxy)-1-oxoisoindolin-2-yl)piperidine-2,6-dione], the IKZF2 % protein reduction at 10 µM is 85%.

Turning to `O=C1CCC(N2Cc3cc(O[C@H]4CCC[C@@H]4NCc4ccc5[nH]ccc5c4)ccc3C2=O)C(=O)N1` (stereo partly drawn) [I-174, 3-(5-(((1S,2S)-2-(((1H-indol-5-yl)methyl)amino)cyclopentyl)oxy)-1-oxoisoindolin-2-yl)piperidine-2,6-dione], the IKZF2 % protein reduction at 10 µM was determined as 86%.

Turning to `CC1CCN([C@H]2CCC[C@@H]2Oc2ccc3c(c2)CN(C2CCC(=O)NC2=O)C3=O)CC1` (stereo partly drawn) [I-149, 3-(5-(((1S,2S)-2-(4-methylpiperidin-1-yl)cyclopentyl)oxy)-1-oxoisoindolin-2-yl)piperidine-2,6-dione], the IKZF2 % protein reduction at 10 µM was determined as 77%.

With `CCOC1(C)CCN([C@H]2CCC[C@@H]2Oc2ccc3c(c2)CN(C2CCC(=O)NC2=O)C3=O)CC1` (stereo partly drawn) [I-158, 3-(5-(((1S,2S)-2-(4-ethoxy-4-methylpiperidin-1-yl)cyclopentyl)oxy)-1-oxoisoindolin-2-yl)piperidine-2,6-dione], the IKZF2 % protein reduction at 10 µM was determined as 82%.

Consider `CO[C@H]1CCC[C@@H]1N[C@H]1CCCC[C@@H]1Oc1ccc2c(c1)CN(C1CCC(=O)NC1=O)C2=O` (single isomer, unassigned) [I-119], for which the IKZF2 % protein reduction at 10 µM turned out to be 59%.

With `O=C1CCC(N2Cc3cc(O[C@H]4CCCC[C@@H]4NCc4cccnc4)ccc3C2=O)C(=O)N1` (stereo partly drawn) [I-75, 3-(1-oxo-5-(((1S,2S)-2-((pyridin-3-ylmethyl)amino)cyclohexyl)oxy)isoindolin-2-yl)piperidine-2,6-dione], the IKZF2 % protein reduction at 10 µM was determined as 79%.

Consider `CC(C)CN[C@H]1CCCC[C@@H]1Oc1ccc2c(c1)CN(C1CCC(=O)NC1=O)C2=O` (stereo partly drawn) [I-7, 3-(5-(((1S,2S)-2-(isobutylamino)cyclohexyl)oxy)-1-oxoisoindolin-2-yl)piperidine-2,6-dione], for which the IKZF2 % protein reduction at 10 µM was determined as 85%.

As to `N[C@H]1COC[C@@H]1Oc1ccc2c(c1)CN(C1CCC(=O)NC1=O)C2=O` (stereo partly drawn) [I-46, 3-(5-(((3R,4S)-4-aminotetrahydrofuran-3-yl)oxy)-1-oxoisoindolin-2-yl)piperidine-2,6-dione], the IKZF2 % protein reduction at 10 µM came to 0%.

`CCN(CC(F)F)[C@H]1CCC[C@@H]1Oc1ccc2c(c1)CN(C1CCC(=O)NC1=O)C2=O` (stereo partly drawn) [I-1, 3-(5-(((1S,2S)-2-((2,2-difluoroethyl)(ethyl)amino)cyclopentyl)oxy)-1-oxoisoindolin-2-yl)piperidine-2,6-dione]: the IKZF2 % protein reduction at 10 µM was 10%.

With `O=C1CCC(N2Cc3cc(O[C@H]4CCC[C@@H]4NCc4ccccn4)ccc3C2=O)C(=O)N1` (stereo partly drawn) [I-145, 3-(1-oxo-5-(((1S,2S)-2-((pyridin-2-ylmethyl)amino)cyclopentyl)oxy)isoindolin-2-yl)piperidine-2,6-dione], the IKZF2 % protein reduction at 10 µM was 52%.

For `CCCN(CCC)[C@H]1CCCC[C@@H]1Oc1ccc2c(c1)CN(C1CCC(=O)NC1=O)C2=O` (stereo partly drawn) [I-72, 3-(5-(((1S,2S)-2-(dipropylamino)cyclohexyl)oxy)-1-oxoisoindolin-2-yl)piperidine-2,6-dione], the IKZF2 % protein reduction at 10 µM worked out at 57%.

In the case of `CN(C)[C@H]1CCCC[C@@H]1Oc1ccc2c(c1)CN(C1CCC(=O)NC1=O)C2=O` (stereo partly drawn) [I-80, 3-(5-(((1S,2S)-2-(dimethylamino)cyclohexyl)oxy)-1-oxoisoindolin-2-yl)piperidine-2,6-dione], the IKZF2 % protein reduction at 10 µM is 65%.

On to `O=C1CCC(N2Cc3cc(O[C@H]4CCCC[C@@H]4N4CCOCC4)ccc3C2=O)C(=O)N1` (stereo partly drawn) [I-84, 3-(5-(((1S,2S)-2-morpholinocyclohexyl)oxy)-1-oxoisoindolin-2-yl)piperidine-2,6-dione], for which the IKZF2 % protein reduction at 10 µM came out at 35%.

Take `N[C@H]1CCC[C@@H]1Oc1ccc2c(c1F)CN(C1CCC(=O)NC1=O)C2=O` (stereo partly drawn) [I-213, 3-(5-(((1S,2S)-2-aminocyclopentyl)oxy)-4-fluoro-1-oxoisoindolin-2-yl)piperidine-2,6-dione]: the IKZF2 % protein reduction at 10 µM was 20%.

Consider `O=C1CCC(N2Cc3cc(O[C@H]4CCC[C@@H]4N4C[C@H]5COC[C@H]5C4)ccc3C2=O)C(=O)N1` (stereo partly drawn) [I-144, 3-(1-oxo-5-(((1S,2S)-2-((3aR,6aS)-tetrahydro-1H-furo[3,4-c]pyrrol-5(3H)-yl)cyclopentyl)oxy)isoindolin-2-yl)piperidine-2,6-dione], for which the IKZF2 % protein reduction at 10 µM came out at 88%.

Consider `CN(C)[C@H]1c2ccccc2C[C@@H]1Oc1ccc2c(c1)CN(C1CCC(=O)NC1=O)C2=O` (stereo partly drawn) [I-201, 3-(5-(((1S,2S)-1-(dimethylamino)-2,3-dihydro-1H-inden-2-yl)oxy)-1-oxoisoindolin-2-yl)piperidine-2,6-dione], for which the IKZF2 % protein reduction at 10 µM came out at 46%.

As for `O=C1CCC(N2Cc3cc(OC4CCCC4N4CCC5(CCOCC5)C4)ccc3C2=O)C(=O)N1` (single isomer, unassigned) [I-183, 3-(5-((2-(8-oxa-2-azaspiro[4.5]decan-2-yl)cyclopentyl)oxy)-1-oxoisoindolin-2-yl)piperidine-2,6-dione], the IKZF2 % protein reduction at 10 µM amounted to 84%.

As for `O=C1CCC(N2Cc3cc(O[C@H]4CCC[C@@H]4N4CC(Oc5ccccc5Cl)C4)ccc3C2=O)C(=O)N1` (stereo partly drawn) [I-177, 3-(5-(((1S,2S)-2-(3-(2-chlorophenoxy)azetidin-1-yl)cyclopentyl)oxy)-1-oxoisoindolin-2-yl)piperidine-2,6-dione], the IKZF2 % protein reduction at 10 µM was 92%.

Consider `O=C1CCC(N2Cc3cc(O[C@H]4CCCCC[C@@H]4NCC4CC(F)(F)C4)ccc3C2=O)C(=O)N1` (stereo partly drawn) [I-69, 3-(5-(((1S,2S)-2-(((3,3-difluorocyclobutyl)methyl)amino)cycloheptyl)oxy)-1-oxoisoindolin-2-yl)piperidine-2,6-dione], for which the IKZF2 % protein reduction at 10 µM amounted to 84%.

Consider `CC1(C)CCCN([C@H]2CCC[C@@H]2Oc2ccc3c(c2)CN(C2CCC(=O)NC2=O)C3=O)C1` (single isomer, unassigned) [I-168], for which the IKZF2 % protein reduction at 10 µM turned out to be 83%.

The same experiment, now with this note: 24 h, read-out: IKZF2 % protein reduction at 10 μM, 24 h.
Consider `N[C@H]1CCCC[C@@H]1Oc1ccc2c(c1)CN(C1CCC(=O)NC1=O)C2=O` (stereo partly drawn) [I-15, 3-(5-(((1S,2S)-2-aminocyclohexyl)oxy)-1-oxoisoindolin-2-yl)piperidine-2,6-dione hydrochloride], for which the IKZF2 % protein reduction at 10 µM stood at 50%.

As for `CCN[C@H]1CCCCC[C@@H]1Oc1ccc2c(c1)CN(C1CCC(=O)NC1=O)C2=O` (stereo partly drawn) [I-57, 3-(5-(((1S,2S)-2-(ethylamino)cycloheptyl)oxy)-1-oxoisoindolin-2-yl)piperidine-2,6-dione], the IKZF2 % protein reduction at 10 µM is 80%.

On to `CC1(C)CCN([C@H]2CCC[C@@H]2Oc2ccc3c(c2)CN(C2CCC(=O)NC2=O)C3=O)CC1` (stereo partly drawn) [I-153, 3-(5-(((1S,2S)-2-(4,4-dimethylpiperidin-1-yl)cyclopentyl)oxy)-1-oxoisoindolin-2-yl)piperidine-2,6-dione], for which the IKZF2 % protein reduction at 10 µM turned out to be 85%.

Consider `CCN(C[C@H]1CC[C@H](OC)CC1)[C@H]1CCC[C@@H]1Oc1ccc2c(c1)CN(C1CCC(=O)NC1=O)C2=O` (stereo partly drawn) [I-170, 3-(5-(((1S,2S)-2-(ethyl(((1r,4S)-4-methoxycyclohexyl)methyl)amino)cyclopentyl)oxy)-1-oxoisoindolin-2-yl)piperidine-2,6-dione], for which the IKZF2 % protein reduction at 10 µM is 67%.
